In one assay the test system is α1‐antitrypsin. The assay is described as follows: SYPRO Orange thermal shift assay. The assay is classed as biochemical, human. To be noted: 50μM GSK716. The source says:
(§1) Polymerisation of α1‐antitrypsin involves transition through a transient intermediate state known as M*, that is readily populated by the Z variant (Dafforn et al, 1999; Knaupp et al, 2010). The M* conformational ensemble appears to be a distinct species between the native state conformation and that of the final polymer. One of the hallmarks of M* is its recognition by environment‐sensitive fluorescent reporter dyes. Thermal shift assays that make use of the dye SYPRO Orange report the stability of the protein native state against heat‐induced unfolding. […] Native state stability can also be probed by equilibrium unfolding using chemical denaturants, where a peak in bis‐ANS fluorescence corresponds with a maximally populated unfolding intermediate (James & Bottomley, 1998). […] The association of GSK716 induced a marked quenching and blue‐shift of the α1‐antitrypsin intrinsic tryptophan fluorescence spectrum (Fig 4D, inset). The rate of change in fluorescence during association of 10µM GSK716 was proportional to the propensity of α1‐antitrypsin mutants to form polymers in vivo: inert (M), mild (S), moderate (Baghdad) and severe (Z) α1‐antitrypsin (Fig 4D, top and bottom). […]

A further assay deals with M and Z α1‐antitrypsin. As to the kind of experiment: Heat‐induced oligomerisation, constant temperature, non‐denaturing PAGE. The assay is classed as biochemical, human. As to conditions: constant‐temperature experiment, 4 h, 48 to 65°C.
Description: as §1

In another assay the target is neuroserpin (Homo sapiens, UniProt Q99574). The assay is described as follows: Inhibitory activity of neuroserpin against trypsin. The assay is classed as biochemical. Here is the method: Figure 5 The effect of GSK716 on serpin inhibitory activity • α1‐Antitrypsin was incubated at varying molar ratios with the model protease bovine α‐chymotrypsin, and the residual protease activity determined. The intercept of the regression with the abscissa reflects the number of molecules of α1‐antitrypsin required to inhibit one molecule of chymotrypsin in the presence (+c) and absence (−c) of 50µM GSK716. Error bars reflect ± SEM of three independent experiments. • M α1‐antitrypsin was incubated with different molar ratios of chymotrypsin and resolved by SDS–PAGE. The position of covalent α1‐antitrypsin‐chymotrypsin complex (cpx), native (nat) and cleaved (clv) is shown. • The inhibitory activity of α1‐antichymotrypsin against chymotrypsin (ach + chym), neuroserpin against trypsin (neus + tryp), and antithrombin against thrombin (atiii + thrombin) was determined in the presence and absence of GSK716. Error bars reflect ± SD of two independent experiments.
GSK716 selectivity and PK properties were profiled in order to investigate the suitability of GSK716 for progression into in vivo studies and the potential for taking it forward as a clinical candidate for testing in humans. Since GSK716 results in loss of inhibitory activity of α1‐antitrypsin, the effect of the compound was assessed on other closely related serpins. […]

The target of another assay is KCNQ1/minK (Homo sapiens, UniProt P51787). The assay is described as follows: cell-based. The method, then:
(§2) GSK716 selectivity and PK properties were profiled in order to investigate the suitability of GSK716 for progression into in vivo studies and the potential for taking it forward as a clinical candidate for testing in humans. Since GSK716 results in loss of inhibitory activity of α1‐antitrypsin, the effect of the compound was assessed on other closely related serpins. […] Furthermore, there were no off‐target effects in a panel of assays considered predictive of known safety liabilities that precluded further development of GSK716 (Table EV1).

Assay [1] addresses T1, Norepinephrine transporter (Homo sapiens, UniProt P23975). As to the kind of experiment: Off‐target panel: Norepinephrine transporter. The assay is classed as cell-based. Here is the method:
as §2

Assay [2] addresses T1, Norepinephrine transporter. The assay is described as follows: Off‐target panel: Norepinephrine transporter (DRX). The assay is classed as cell-based. The method, then:
as §2

Another assay deals with Serotonin 5HT1B (Homo sapiens, UniProt P28222). As to the kind of experiment: Off‐target panel: Serotonin 5HT1B. The assay is classed as cell-based. Here is the method: as §2

SMILES strings stand for the structures. Where only a bound is given, the exact number is not on record here.

T1 sequence (P23975 whole entry, species assumed): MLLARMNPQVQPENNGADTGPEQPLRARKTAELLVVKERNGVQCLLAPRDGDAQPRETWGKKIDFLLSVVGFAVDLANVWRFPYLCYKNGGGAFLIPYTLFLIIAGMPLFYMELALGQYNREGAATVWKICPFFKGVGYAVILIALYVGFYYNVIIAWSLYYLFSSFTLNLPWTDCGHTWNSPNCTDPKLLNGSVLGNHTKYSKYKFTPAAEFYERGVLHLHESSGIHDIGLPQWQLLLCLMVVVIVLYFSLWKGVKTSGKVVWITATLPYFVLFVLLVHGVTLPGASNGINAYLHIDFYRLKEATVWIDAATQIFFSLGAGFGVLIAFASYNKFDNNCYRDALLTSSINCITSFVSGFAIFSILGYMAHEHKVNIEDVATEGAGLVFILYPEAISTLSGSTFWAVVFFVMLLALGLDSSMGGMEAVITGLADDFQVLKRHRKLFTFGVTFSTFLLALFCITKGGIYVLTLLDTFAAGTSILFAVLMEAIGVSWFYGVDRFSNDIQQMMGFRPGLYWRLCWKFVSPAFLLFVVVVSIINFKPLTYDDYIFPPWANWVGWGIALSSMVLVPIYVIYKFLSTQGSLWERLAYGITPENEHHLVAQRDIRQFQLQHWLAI
Serotonin 5HT1B, sequence (P28222 whole entry): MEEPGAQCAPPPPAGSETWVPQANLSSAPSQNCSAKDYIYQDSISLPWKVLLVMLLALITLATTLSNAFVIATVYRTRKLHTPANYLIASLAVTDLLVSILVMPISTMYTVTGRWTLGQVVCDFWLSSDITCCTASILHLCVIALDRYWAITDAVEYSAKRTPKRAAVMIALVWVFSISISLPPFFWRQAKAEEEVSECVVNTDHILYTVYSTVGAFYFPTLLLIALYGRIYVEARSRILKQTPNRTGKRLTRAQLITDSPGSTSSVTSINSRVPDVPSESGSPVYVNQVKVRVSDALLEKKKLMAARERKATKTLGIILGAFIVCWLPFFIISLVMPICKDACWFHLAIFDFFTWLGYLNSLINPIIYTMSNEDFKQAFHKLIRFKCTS
neuroserpin, sequence (Q99574 17-410, species assumed): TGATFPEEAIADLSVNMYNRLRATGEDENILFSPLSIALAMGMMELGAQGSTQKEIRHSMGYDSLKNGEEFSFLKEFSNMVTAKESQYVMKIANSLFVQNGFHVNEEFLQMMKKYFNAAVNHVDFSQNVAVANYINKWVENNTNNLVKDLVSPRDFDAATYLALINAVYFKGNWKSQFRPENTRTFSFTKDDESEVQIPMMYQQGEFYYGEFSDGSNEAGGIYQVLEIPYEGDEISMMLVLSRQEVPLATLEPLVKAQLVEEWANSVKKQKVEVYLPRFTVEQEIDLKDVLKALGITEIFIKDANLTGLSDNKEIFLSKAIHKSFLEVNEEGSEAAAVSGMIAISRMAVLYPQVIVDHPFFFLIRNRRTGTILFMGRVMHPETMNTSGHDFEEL

In the case of `CCC[C@@H](NC(=O)c1cccc2c1CC(=O)N2)[C@@H](O)c1cccc(F)c1C` [GSK716], the transition midpoint temperature entry with α1‐antitrypsin is recorded as “marked increase”. Further, the “temperature of oligomer generation” value in the assay on M and Z α1‐antitrypsin was “oligomers were generated at higher temperatures in the presence of the compound than in its absence”. Besides, the “inhibitory activity of neuroserpin towards its cognate protease” value on neuroserpin is reported as “did not affect”. Further, the IC50 on KCNQ1/minK is more than 25.1 µM; in assay [1], more than 100 µM; in assay [2], more than 100 µM; on Serotonin 5HT1B it was more than 100 µM. Besides, the concentration giving a half-maximal response (EC50) on Serotonin 5HT1B was more than 100 µM.

By IC50 is commonly meant the concentration at which inhibition is half-maximal. Low values mean greater potency, high ones weaker potency. As a reminder, the EC50 is the concentration that produces a half-maximal response. A high value points to a less potent agent.

For the origin of these results see article PMC7933930, “Development of a small molecule that corrects misfolding and increases secretion of Z α1‐antitrypsin” (EMBO Molecular Medicine, 2021).
